Test results from patent US6452005B1, “JAK-3 inhibitors for treating allergic disorders” (Parker Hughes Institute, priority 1999, dated 2002).
Read-outs that look alike come from different tables or passages of the source.

How the values were obtained:
[1] = Pharmacokinetic studies in mice; assay type: in vivo; settings: for Cmax: 12.5 mg/kg bolus, read-out: estimated maximum plasma concentration (Cmax)
Protocol: FIGS. 13A and 13B are graphs showing pharmacokinetic features of the JAK3 inhibitor WHI-P131 in mice. Plasma concentration-time profiles of WHI-P131 in mice following intravenous [13A] or intraperitoneal [13B] administration (12.5 mg/kg; 5 mice per group). The pharmacokinetic parameters, including the central volume of distribution (Vc), estimated maximum plasma concentration (Cmax), elimination half-life (t½β), systemic exposure level/area under plasma concentration-time curve (AUC), and bioavailability (F), are shown in the insets.
Pharmacokinetic Studies: In pharmacokinetic studies, mice were injected either intravenously (i.v.) via the tail vein or intraperitoneally (i.p.) with a bolus dose of 300 μg/mouse (12.5 mg/kg =34 μmols/kg) of WHI-P131. Blood samples were obtained from the ocular venous plexus by retroorbital venupuncture prior to and at 3 minutes, 5 minutes, 10 minutes, 15 minutes, 30 minutes, 45 minutes and 1 hour, 2 hours, 4 hours and 8 hours a administration of WHI-P131. All collected blood samples were heparinized and centrifuged at 7,000×g for 10 minutes in a microcentrifuge to obtain plasma. The plasma samples were stored at −20° C. until analysis. Aliquots of plasma were used for extraction and HPLC analysis. Pharmacokinetic modeling and pharmacokinetic parameter calculations were carried out using the pharmacokinetics software, WinNonline Program, Version 1.1. (Scientific Consulting Inc., Cary, N.C.). Concentration data were weighted by 1/concentration. An appropriate pharmacokinetic model was chosen on the basis of lowest weighted squared residuals, lowest Schwartz criterion (SC), lowest Akaike's Information Criterion (AIC) value, lowest standard errors of the fitted parameters, and dispersion of the residuals. The elimination half-life was estimated by linear regression analysis of the terminal phase of the plasma concentration profile. The area under the concentration time curve (AUC) was calculated by the trapezoidal rule between first (0 h) and last sampling time plus C/k, where C is the concentration of last sampling and k is the elimination rate constant. Systemic clearance (CL) was determined by dividing the dose by the AUC. The apparent volume of distribution at steady-state was calculated using the following equation, Vss=Dose·AUMC/(AUC)^2 Bioavailability (F) was estimated using the equation F(%)=AUCip×Doseiv/AUCiv×Doseip.
In brief, the HPLC system consisted of a Hewlett Packard (HP) series 1100 equipped with an automated electronic degasser, a quaternary pump, an autosampler, an automatic thermostatic column compartment, diode array detector and a computer with a Chemstation software program for data analysis. A 250×4 mm Lichrospher 100, RP-18 (5 μm) analytical column and a 4×4 mm Lichrospher 100, RP-18 (5 μm) guard column were obtained from Hewlett Packard Inc. (San Fernando, Calif.). Acetonitrile/water containing 0.1% of trifluoroacetic acid (TFA) and 0.1% triethylamine (TEA) (28:72, v/v) was used as the mobile phase. The wavelength of detection was set at 340 nm. Peak width, response time and slit were set at >0.03 minutes, 0.5 seconds and 8 nm, respectively. […] For extraction, 7 ml chloroform was then added to the plasma sample, and the mixture was vortexed thoroughly for 3 minutes. Following centrifugation (300×g, 5 minutes), the aqueous layer was frozen using acetone/dry ice and the organic phase was transferred into a clean test tube. The chloroform extracts were dried under a slow steady stream of nitrogen. The residue was reconstituted in 100 μL of methanol: water (9:1) and 50 μL aliquot of this solution was used for HPLC analysis.

LYN = target: T1, LYN (Homo sapiens, UniProt P07948); assay: Immune complex kinase assay, LYN from NALM-6 cells; assay type: biochemical; settings: concentrations as high as 350 μM
T1 construct: LYN was immunoprecipitated from whole cell lysates of NALM-6 human leukemia cells; endogenous in cells; host or cells: NALM-6 human B-lineage ALL cells
T1 sequence (P07948 whole entry): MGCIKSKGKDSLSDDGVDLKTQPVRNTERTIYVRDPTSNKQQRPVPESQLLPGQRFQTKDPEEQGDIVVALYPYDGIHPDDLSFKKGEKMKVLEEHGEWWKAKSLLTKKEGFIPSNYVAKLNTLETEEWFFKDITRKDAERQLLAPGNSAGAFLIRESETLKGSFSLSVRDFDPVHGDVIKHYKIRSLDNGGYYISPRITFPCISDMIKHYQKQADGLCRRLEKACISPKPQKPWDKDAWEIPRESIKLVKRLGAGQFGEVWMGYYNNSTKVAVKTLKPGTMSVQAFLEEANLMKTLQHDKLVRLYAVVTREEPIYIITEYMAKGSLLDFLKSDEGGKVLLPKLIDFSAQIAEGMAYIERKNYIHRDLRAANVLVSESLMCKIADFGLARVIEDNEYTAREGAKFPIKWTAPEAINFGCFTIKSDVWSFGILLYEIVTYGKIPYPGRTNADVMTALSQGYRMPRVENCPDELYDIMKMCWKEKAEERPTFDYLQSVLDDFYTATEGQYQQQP

SYK = SYK activation in RBL-2H3 mast cells after IgE receptor crosslinking; settings: 30 μM
Protocol: (§1) Cells were lysed at the indicated time points, and SYK immune complexes were subjected to kinase assays in the presence of cold ATP followed by APT immunoblotting (upper panels in 8C & 8D) as well as to SYK Western blot analysis (lower panels in 8C & 8D).
(§2) Immune-Complex Kinase Assays and Western Blot Analyses of Mast Cell Lysates. […] Cells were harvested, lysed (10 mM Tris pH 7.6, 100 mM NaCl, 1% Nonidet P-40, 10% glycerol, 50 mM NaF, 100 mM Na3VO4, 50 mg/ml phenylmethylsulfonyl fluoride, 10 mg/ml aprotonin, 10 mg/ml leupeptin), and the kinases were immunoprecipitated from the lysates, as reported (Uckun et. al., 1995, Science, 267:886-891; Uckun et. al., 1996, Science, 273:1096-1100). […] Immunoprecipitations, and immunoblotting using the ECL chemiluminescence detection system (Amersham Life Sciences) were conducted as described previously (Uckun et. al., 1996, Science, 273:1096-1100).

JAK3 = JAK3 activation in RBL-2H3 mast cells after IgE receptor crosslinking; settings: 30 μM
Protocol: as §1, §2

RBL-2H3 mast cells = assay: IgE/antigen-induced activation (cell spreading, microtubule organization) by confocal microscopy; assay type: cell-based, rat; settings: 30 μM, two hour incubation
Protocol: RBL-2H3 cells were cultured overnight on 22×22 mm coverslips at a cell density of 0.01×10^6/ml with […] DNP-IgE. Sensitized RBL-2H3 cells were then treated with 30 μM WHI-P131, vehicle, or control compounds WHI-P258 and WHI-P112 prior to challenge with DNP-BSA, as described in the legend of FIG. 4. After stimulation with DNP-BSA for 1 hour, cells were fixed in cold methanol for 15 minutes followed by permeabilization with PBS containing 0.1% Triton X-100. […] After washing 3 times with PBS-0.1% Triton X-100, cells were incubated with fluorescein labeled secondary antibody (Zymed, San Francisco, Calif.) for another 40 minutes. Cells were washed three times to remove unbound antibody. DNA labeling was performed by incubation of coverslips with toto-3 (Molecular Probes, Eugene, Oreg.) for 10 minutes. Excessive dye was washed with PBS-0.1% Triton X-100. Cells were visualized under MRC 1024 Laser Scanning Microscope after mounting with Vectashield (Vector laboratories, Inc, Burlingame, Calif.), as previously reported.
Confocol Microscopy: Staining of mast cells with primary and secondary antibodies followed by confocal laser scanning microscopy was performed as previously described in detail (Uckun et. al., 1998, Clin. Cancer Res., 4:901-912). After staining with appropriate primary and secondary antibodies, cells were washed three times to remove unbound antibody. DNA labeling was performed by incubation of coverslips with toto-3 (Molecular Probes, Eugene, Oreg.) for 10 min. Excessive dye was washed with PBS-0.1% triton X-100. Cells were visualized under MRC 1024 Laser Scanning Microscope after mounting with Vectashield (Vector laboratories, Inc, Burlingame, Calif.).
In a systematic effort aimed at elucidating the biologic consequences of JAK3 inhibition in mast cells, we first sought to determine if the JAK3 inhibitor WHI-P131 could prevent the IgE receptor/FcεRI-mediated activation of mast cells. Since the IgE receptor/FcεRI-mediated activation of mast cells results in a distinct morphologic transformation with marked cell spreading due to membrane ruffling, microtubule formation and actin polymerization (Apgar, 1997), we evaluated the effects of WHI-P131 on the activation-associated transformation of shape and surface topography of RBL-2H3 mast cells using confocal laser scanning microscopy (Ghosh et. al., 1998).

In the case of `COc1cc2ncnc(Nc3ccc(O)cc3)c2cc1OC` [WHI-P131, 4-(4′-Hydroxylphenyl)-amino-6,7-dimethoxyquinazoline], the absorption half-life ([1]; i.p., 12.5 mg/kg) is reported as 6 min, the estimated bioavailability ([1]; i.p., 12.5 mg/kg) is reported as 94.4% and the “time to reach maximum plasma concentration” value ([1]; i.p., 12.5 mg/kg) is reported as 0.17 h. The β-half-life ([1]; i.p., 12.5 mg/kg) was 1.9 h, the Cmax ([1]; i.p.) was 57.7 µM and the β-half-life ([1]; i.v., 12.5 mg/kg) was 2.1 h. The Cmax ([1]; i.v.) was 85.6 µM, the “effect on enzymatic activity of LYN” value (LYN) was “did not affect” and the “SYK activation after IgE receptor/FcεRI crosslinking” value (SYK) was “did not prevent”. For the same molecule, the “JAK3 activation after IgE receptor crosslinking” value (JAK3) was “abrogated”, the “IgE/antigen-induced mast cell activation (spreading and microtubule organization)” value (RBL-2H3 mast cells) was “prevented” and the “cells spindle shaped after IgE/antigen” value (RBL-2H3 mast cells) was 58%. The “cells flattened after IgE/antigen” value (RBL-2H3 mast cells; 93% without drug) was 23%.
